The text below walks through data of patent publication US4139632A, “Psychotropic 2-trifluoromethyl-10-[3-(3-hydroxy-pyrrolidino)-propyl]-phenothiazine compounds” (Eisai Co., Ltd., priority 1975, dated 1979).

Format in all cases: in vivo
The subject of series [1] is Mouse. The experiment in a line: Inhibitory effect of spontaneous motor activity. As to conditions: read-out: Inhibitory effect of spontaneous motor activity, 50% effective amount (ED50). Here is the method: (§1) Measurement of pharmacological activities are conducted in accordance with the procedures described in the following literatures:
1) Svensson, T. H. et al

The subject of series [2] is Mouse. The experiment in a line: Anti-writhing effect (analgetic activity). As to conditions: read-out: Anti-writhing effect, 50% effective amount (ED50). The procedure: as §1
Proc. Soc. […] Biol, & Med.,
A general note: In writhing tests, fewer writhes than in controls are read as antinociception.

The subject of series [3] is Mouse. The experiment in a line: Anti-tremorine activity (anti-Parkinson activity). Conditions: for ED50: read-out: Anti-tremorine activity, 50% effective amount (ED50). Here is the method:
(§2) Measurement of pharmacological activities are conducted in accordance with the procedures described in the following literatures: […]

Series [4] relates to Mouse. The experiment in a line: Anti-methanphethamine activity (neuroleptic activity). As to conditions: read-out: Anti-methanphethamine, 50% effective amount (ED50). Here is the method: as §2
In series [5] the test system is Mouse. The experiment in a line: Acute toxicity LD50, oral administration. Conditions: compared with chlorpromazine and fluphenazine.

One may read the ED50 as the dose at which the effect has come halfway, by size or by number of responders. For `CN(C)CCCN1c2ccccc2Sc2ccc(Cl)cc21` [Chlorpromazine], the ED50 was 13 mg/kg in the series with Mouse [1] (Mus musculus, po); 9.4 mg/kg with Mouse [2] (Mus musculus, po); 2.3 mg/kg with Mouse [3] (Mus musculus, po); 5.6 mg/kg in the series with Mouse [4] (Mus musculus, po).
For the compound `Cl.OC1CCN(CCCN2c3ccccc3Sc3ccc(C(F)(F)F)cc32)C1` (stereo not drawn) [Compound A, 2-trifluoromethyl-10-[3-(3-hydroxy-pyrrolidino)-propyl]-phenothiazine hydrochloride], the ED50 in the series with Mouse [1] (mouse, oral administration) came to 3.3 mg/kg; in the series on Mouse [2] (mouse, oral administration), 1 mg/kg; with Mouse [3] (mouse, oral administration), 3.6 mg/kg; with Mouse [4] (mouse, oral administration), 0.9 mg/kg. Besides, the “acute toxicity (LD50) relative to chlorpromazine and fluphenazine” value in the series with Mouse [5] was “far less than that of chlorpromazine and fluphenazine”. In addition, in the series on Mouse [3] (concluded from table comparison), the central anticholinergic activity entry is “has central anticholinergic activity”.
As to `OCCN1CCN(CCCN2c3ccccc3Sc3ccc(C(F)(F)F)cc32)CC1` [Fluphenazine], the ED50 in the series on Mouse [1] (mouse, oral administration) is 2.1 mg/kg; in the series on Mouse [2] (mouse, oral administration), 2.5 to 10 mg/kg; with Mouse [3] (mouse, oral administration), 12 mg/kg; in the series on Mouse [4] (mouse, oral administration) it was 0.5 mg/kg.
The corresponding values for `Cl.FC(F)(F)c1ccc2c(c1)N(CCCN1CCCC1)c1ccccc1S2` [Known Compound a, 2-trifluoromethyl-10-(3-pyrrolidino-propyl)-phenothiazine hydrochloride] are 3.8 mg/kg, 4.1 mg/kg, 4.3 mg/kg and 1.9 mg/kg.
